Assay results from patent US20230151049A1, “Compounds Useful in HIV Therapy” (priority 2020, published 2023).
Where two headings read alike, the source gives them in different places.

Assay: in vivo
From the text: General Protocol for Prodrugs Rat PK Studies Conducted at ChemPartner, China
A total of three naïve male Wistar Han rats, 200-250 g, were received from Beijing VR Laboratory Animal Co. LTD. Following an acclimation period, the animals were assigned to the study based on acceptable health as determined by a staff veterinarian and catheter patency. Fasting of the animals before or after dosing was not required.
On Day 1, each animal received a single intramuscular injection of prepared test article at a target dose level of 20 mg/kg equivalent of EFdA and at a dose volume of 2 mL/kg. The injection sites were at gastrocnemius and identified with an indelible marker for daily monitoring during the study. The animals were manually restrained for dosing and were not sedated. The dose suspension was mixed well by inversion before each dose to ensure homogeneity. […] In addition, all animals are monitored twice daily by the veterinary staff for clinical abnormalities.
Blood samples were collected from the study animals as detailed in the sample collection Table 6 below
Each blood sample for PK (200 μL) was collected from tail vein. The blood was transferred to a tube containing NaF/Na2EDTA anticoagulant and inverted several times to mix. Draw 150 μL whole blood from the tube, add 150 uL 100 mM ammonium acetate, pH 4 buffer and mix well. The resulting blood samples were transferred to individual polypropylene tubes and immediately placed on dry ice until storage at nominally −80° C. prior to LC-MS/MS analysis.

[1] = day 35, single IM Example 18A 54 mg/kg
[2] = day 42, single IM Example 18A 54 mg/kg
[3] = day 49, single IM Example 18A 54 mg/kg
[4] = day 28, single IM Example 2B 20 mg/kg
[5] = day 35, single IM Example 2B 20 mg/kg
[6] = day 35, single IM Example 19A 55 mg/kg
[7] = day 42, single IM Example 19A 55 mg/kg
[8] = day 49, single IM Example 19A 55 mg/kg

SMILES: C#C[C@]1(COP(=O)(N[C@@H](Cc2ccccc2)C(=O)OCCCCCCCCCCCCCC)Oc2ccccc2)O[C@@H](n2cnc3c(N)nc(F)nc32)C[C@@H]1O (single isomer, unassigned) [Example 18A]
- Mean concentration of EFdA (day 28, single IM Example 18A 54 mg/kg): BQL (BQL = below quantification limit, 0.3 ng/mL for both)
- Mean concentration of EFdA [1]: BQL (BQL = below quantification limit, 0.3 ng/mL for both)
- Mean concentration of Example 18A [1]: BQL (BQL = below quantification limit, 0.3 ng/mL for both)
- Mean concentration of EFdA [2]: BQL (BQL = below quantification limit, 0.3 ng/mL for both)
- Mean concentration of Example 18A [2]: BQL (BQL = below quantification limit, 0.3 ng/mL for both)
- Mean concentration of EFdA [3]: BQL (BQL = below quantification limit, 0.3 ng/mL for both)
- Mean concentration of Example 18A [3]: BQL (BQL = below quantification limit, 0.3 ng/mL for both)
- concentration at 1 day (male, Wistar Han, rat, in vivo, day 1, single IM Example 18A 54 mg/kg, read-out: Mean concentration of Example 18A): 2.47 ng/mL
- concentration at 7 day (male, Wistar Han, rat, in vivo, day 7, single IM Example 18A 54 mg/kg, read-out: Mean concentration of Example 18A): 12 ng/mL
- concentration at 14 day (male, Wistar Han, rat, in vivo, day 14, single IM Example 18A 54 mg/kg, read-out: Mean concentration of Example 18A): 1.44 ng/mL
- concentration at 21 day (male, Wistar Han, rat, in vivo, day 21, single IM Example 18A 54 mg/kg, read-out: Mean concentration of Example 18A): 0.947 ng/mL
- concentration at 28 day (male, Wistar Han, rat, in vivo, day 28, single IM Example 18A 54 mg/kg, read-out: Mean concentration of Example 18A): 0.614 ng/mL

SMILES: C#C[C@]1(COP(=O)(N[C@@H](Cc2ccccc2)C(=O)OCCCCCCCCCCCCCCCCC)Oc2ccccc2)O[C@@H](n2cnc3c(N)nc(F)nc32)C[C@@H]1O (single isomer, unassigned) [Example 20A]
- Mean concentration of EFdA (day 77, single IM Example 20A 57 mg/kg): BQL (BQL = below quantification limit, 0.3 ng/mL for Example 20A and 0.1-0.3 ng/mL for EFdA)
- Mean concentration of EFdA (day 84, single IM Example 20A 57 mg/kg): BQL (BQL = below quantification limit, 0.3 ng/mL for Example 20A and 0.1-0.3 ng/mL for EFdA)
- concentration at 1 day (male, Wistar Han, rat, in vivo, day 1, single IM Example 20A 57 mg/kg, read-out: Mean concentration of Example 20A): 15.3 ng/mL
- concentration at 7 day (male, Wistar Han, rat, in vivo, day 7, single IM Example 20A 57 mg/kg, read-out: Mean concentration of Example 20A): 14.6 ng/mL
- concentration at 14 day (male, Wistar Han, rat, in vivo, day 14, single IM Example 20A 57 mg/kg, read-out: Mean concentration of Example 20A): 13.8 ng/mL
- concentration at 21 day (male, Wistar Han, rat, in vivo, day 21, single IM Example 20A 57 mg/kg, read-out: Mean concentration of Example 20A): 9.76 ng/mL
- concentration at 28 day (male, Wistar Han, rat, in vivo, day 28, single IM Example 20A 57 mg/kg, read-out: Mean concentration of Example 20A): 8.45 ng/mL
- concentration at 35 day (male, Wistar Han, rat, in vivo, day 35, single IM Example 20A 57 mg/kg, read-out: Mean concentration of Example 20A): 13.3 ng/mL
- concentration at 42 day (male, Wistar Han, rat, in vivo, day 42, single IM Example 20A 57 mg/kg, read-out: Mean concentration of Example 20A): 5.27 ng/mL
- concentration at 49 day (male, Wistar Han, rat, in vivo, day 49, single IM Example 20A 57 mg/kg, read-out: Mean concentration of Example 20A): 4.25 ng/mL
- concentration at 56 day (male, Wistar Han, rat, in vivo, day 56, single IM Example 20A 57 mg/kg, read-out: Mean concentration of Example 20A): 3.2 ng/mL
- concentration at 63 day (male, Wistar Han, rat, in vivo, day 63, single IM Example 20A 57 mg/kg, read-out: Mean concentration of Example 20A): 4.84 ng/mL
- concentration at 70 day (male, Wistar Han, rat, in vivo, day 70, single IM Example 20A 57 mg/kg, read-out: Mean concentration of Example 20A): 2.74 ng/mL
- concentration at 77 day (male, Wistar Han, rat, in vivo, day 77, single IM Example 20A 57 mg/kg, read-out: Mean concentration of Example 20A): 4 ng/mL
- concentration at 84 day (male, Wistar Han, rat, in vivo, day 84, single IM Example 20A 57 mg/kg, read-out: Mean concentration of Example 20A): 3.32 ng/mL

SMILES: C#C[C@]1(COP(=O)(N[C@@H](Cc2ccccc2)C(=O)OCCCCCCCCCCCCCCCC)Oc2ccccc2)O[C@@H](n2cnc3c(N)nc(F)nc32)C[C@@H]1O (single isomer, unassigned) [Example 2B]
- Mean concentration of EFdA (day 1, single IM Example 2B 20 mg/kg): BQL (BQL = below quantification limit, 0.2-0.3 ng/mL for both)
- Mean concentration of EFdA (day 7, single IM Example 2B 20 mg/kg): BQL (BQL = below quantification limit, 0.2-0.3 ng/mL for both)
- Mean concentration of EFdA (day 14, single IM Example 2B 20 mg/kg): BQL (BQL = below quantification limit, 0.2-0.3 ng/mL for both)
- Mean concentration of EFdA (day 21, single IM Example 2B 20 mg/kg): BQL (BQL = below quantification limit, 0.2-0.3 ng/mL for both)
- Mean concentration of EFdA [4]: BQL (BQL = below quantification limit, 0.2-0.3 ng/mL for both)
- Mean concentration of Example 2B [4]: BQL (BQL = below quantification limit, 0.2-0.3 ng/mL for both)
- Mean concentration of EFdA [5]: BQL (BQL = below quantification limit, 0.2-0.3 ng/mL for both)
- Mean concentration of Example 2B [5]: BQL (BQL = below quantification limit, 0.2-0.3 ng/mL for both)
- concentration at 1 day (male, Wistar Han, rat, in vivo, day 1, single IM Example 2B 20 mg/kg, read-out: Mean concentration of Example 2B): 0.514 ng/mL
- concentration at 7 day (male, Wistar Han, rat, in vivo, day 7, single IM Example 2B 20 mg/kg, read-out: Mean concentration of Example 2B): 0.708 ng/mL
- concentration at 14 day (male, Wistar Han, rat, in vivo, day 14, single IM Example 2B 20 mg/kg, read-out: Mean concentration of Example 2B): 1.11 ng/mL
- concentration at 21 day (male, Wistar Han, rat, in vivo, day 21, single IM Example 2B 20 mg/kg, read-out: Mean concentration of Example 2B): 1.33 ng/mL

SMILES: C#C[C@]1(COP(=O)(N[C@@H](Cc2ccccc2)C(=O)OCCCCCCCCCCCCCCC)Oc2ccccc2)O[C@@H](n2cnc3c(N)nc(F)nc32)C[C@@H]1O (single isomer, unassigned) [Example 19A]
- Mean concentration of EFdA (day 28, single IM Example 19A 55 mg/kg): BQL (BQL = below quantification limit, 0.3 ng/mL for both)
- Mean concentration of EFdA [6]: BQL (BQL = below quantification limit, 0.3 ng/mL for both)
- Mean concentration of Example 19A [6]: BQL (BQL = below quantification limit, 0.3 ng/mL for both)
- Mean concentration of EFdA [7]: BQL (BQL = below quantification limit, 0.3 ng/mL for both)
- Mean concentration of Example 19A [7]: BQL (BQL = below quantification limit, 0.3 ng/mL for both)
- Mean concentration of EFdA [8]: BQL (BQL = below quantification limit, 0.3 ng/mL for both)
- Mean concentration of Example 19A [8]: BQL (BQL = below quantification limit, 0.3 ng/mL for both)
- concentration at 1 day (male, Wistar Han, rat, in vivo, day 1, single IM Example 19A 55 mg/kg, read-out: Mean concentration of Example 19A): 2.37 ng/mL
- concentration at 7 day (male, Wistar Han, rat, in vivo, day 7, single IM Example 19A 55 mg/kg, read-out: Mean concentration of Example 19A): 9.08 ng/mL
- concentration at 14 day (male, Wistar Han, rat, in vivo, day 14, single IM Example 19A 55 mg/kg, read-out: Mean concentration of Example 19A): 3.06 ng/mL
- concentration at 21 day (male, Wistar Han, rat, in vivo, day 21, single IM Example 19A 55 mg/kg, read-out: Mean concentration of Example 19A): 1.45 ng/mL
- concentration at 28 day (male, Wistar Han, rat, in vivo, day 28, single IM Example 19A 55 mg/kg, read-out: Mean concentration of Example 19A): 0.909 ng/mL
